# Data from patent publication US20040006042A1, “Diaminopyrimidines and combination therapies effective for treatment of P-glycoprotein positive cancers” (priority 1998, published 2004).
# Several values for one entry are separate records, joined by “and”; a condition that tells them apart may be missing. Equal values may be shown once. Where a name gives a salt, the structure may show the parent alone. Read-outs that look alike come from different tables or passages of the source.
# Legend:
# [1] = target: T1, dihydrofolate reductase (Homo sapiens, UniProt P00374); assay: Inhibition of dihydrofolate reductase (Table 1); assay type: biochemical
# T1 sequence (P00374 1-187): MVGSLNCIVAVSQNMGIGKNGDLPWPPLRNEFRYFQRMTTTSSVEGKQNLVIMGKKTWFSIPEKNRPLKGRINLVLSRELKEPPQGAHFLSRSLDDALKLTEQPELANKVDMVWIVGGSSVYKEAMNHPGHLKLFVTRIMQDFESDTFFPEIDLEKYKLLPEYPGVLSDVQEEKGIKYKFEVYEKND
# [2] = system: P388 leukemia; assay: In vivo P388 leukemia life span study; design: species or system CD2F1 mice; conditions: maximum tolerated dose, i.p. Days 3-11 (Adriamycin Days 3, 7, 11); >130 = antitumor effect
# [3] = system: P388/ADR cells; assay: In vitro growth inhibition of P388/ADR cells; assay type: cell-based, murine; conditions: for IC50: Mus musculus, P388/ADR; for R/S: ratio resistant (P388/ADR) to sensitive (P388S) IC50
# [4] = system: Colon 26/clone 10 (C26/10); assay: Colon 26/clone 10 i.p. life span study; assay type: in vivo, CD2F1 mice; conditions: for C26 ip T/C: i.p. implant, treated i.p. Days 3-7 and 10-14 (Adriamycin Days 5, 9, 13), >130 = antitumor effect
# Experimental: (§1) To test compounds of the present invention in vivo, the following methodology was used. P388 leukemia and its Adriamycin resistant subline, P388/ADR were passed weekly in DBA/2 mice as i.p. implants of 10^5 and 10^6 cells, respectively. Animals bearing P388/ADR passage were treated with 7 mg/kg Adriamycin on Day 3 post-implant as a resistance selection pressure. C26/clone 10 was passed every 2 weeks into Balb/c mice as tumor fragments (approximately 30 mg) which were obtained from tumors 1 g in mass.
# Colon 26/clone 10 (C26/10) life span studies were conducted in CD2F1 mice. C26/C10 cells were implanted i.p. on Day 0. Animals were treated i.p. with test agents in the vehicles described above on Days 3-7 and 10-14. Adriamycin was dosed i.p. in saline on Days 5, 9, and 13. […] Percent T/C values in excess of 130 are indicative of an antitumor effect in this model.
# [5] = system: P388S cells; assay: In vitro growth inhibition of P388S cells; assay type: cell-based; conditions: for IC50: Mus musculus, P388/S, read-out: P388S IC50
# [6] = system: P388/ADR leukemia; assay: In vivo P388/ADR leukemia life span study; design: species or system CD2F1 mice; conditions: for P388/ADR T/C: maximum tolerated dose, i.p. Days 3-11 (Adriamycin Days 3, 7, 11), >130 = antitumor effect
# [7] = system: P388/ADR cells; assay: Combination of antifolates with FU and LV on P388/ADR proliferation; assay type: cell-based, murine; conditions: P388/ADR; for Antifol + FU / Antifol + LV / Antifol + LV + FU: antifolate 1 nM 24 hours; for Antifol + FU / Antifol + LV + FU: 5 μM FU final 4 hours; for Antifol + LV / Antifol + LV + FU: LV 10 μM final 4.5 hours; for Antifol: antifolate 1 nM, 24 hours
# [8] = system: HT29 human colon adenocarcinoma cells
# [9] = system: P388 murine leukemia cells; assay: Combination of antifolates with FU and LV on P388 proliferation; assay type: cell-based; conditions: for Antifol + FU / Antifol + LV / Antifol + LV + FU: antifolate 1.0 nM 24 hours; for Antifol + FU / Antifol + LV + FU: 5 μM FU final 4 hours; for Antifol + LV / Antifol + LV + FU: LV 10 μM final 4.5 hours; for Antifol: antifolate 1.0 nM, 24 hours
# [10] = system: C26/10 tumor; assay: C26/10 s.c. tumor growth delay study; assay type: in vivo, CD2F1 mice; conditions: tumor growth delay to 750 mg, s.c. implant, treated i.p. Days 3-7 and 10-14; >5 to 6 days = antitumor effect
# Experimental: as §1
# For the tumor growth delay studies with C26/10, CD2F1 mice were implanted s.c. with 30 mg tumor fragments in the region of the right axilla with the aid of a trocar on Day 0. Animals were treated i.p. with test agents in the vehicles described above on Days 3-7 and 10-14. Adriamycin was dosed i.p. in saline on Days 5, 9, and 13. Tumors in the treated and control groups were measured twice weekly in two perpendicular dimensions and tumor mass calculated according to the formula: mass (mg)=(a×b^2)/2 where “b” is the smallest tumor dimension and “a” is the largest. Calculations of tumor growth delay, defined as the median time (in days) for the treated tumors to reach 750 mg in size minus the median time (in days) for the control tumors to reach 750 mg in size, were as described previously (Schabel, 1977; Leopold, 1985; Elliot, 1984). Growth delays in excess of 5 to 6 days in the C26/10 model are considered to be an antitumor effect.
# [11] = system: HT29 human colon adenocarcinoma cells; assay: Combination of antifolates with FU and LV on HT-29 proliferation (sulphorhodamine B); conditions: for Antifol + LV: antifolate 62.5 nM 24 hours, LV 10 μM final 4.5 hours; for Antifol: antifolate 62.5 nM, 24 hours
# [12] = system: C26 murine colon tumor cells; assay: Combination of antifolates with FU and LV on C26 proliferation; assay type: cell-based; conditions: C26; 5 μM FU alone, 4 hours
smiles,measurement,setting,value
Cc1nc(N)nc(N)c1N1CCN(c2ccc(CNC(CCC(=O)O)C(=O)O)cc2)CC1 (stereo not shown) [A],Ki,[1]; read-out: Ki,0.053 nM
"COc1cccc2c1C(=O)c1c(O)c3c(c(O)c1C2=O)C[C@@](O)(C(=O)CO)C[C@@H]3O[C@H]1C[C@H](N)[C@H](O)[C@H](C)O1 [Adriamycin, reference compound]",P388S T/C,[2],250%
same,IC50,[3]; in vitro,3.9 µg/mL
same,R/S,[3],52
same,C26 ip T/C,[4],180%
same,IC50,[5]; in vitro,0.075 µg/mL
same,activity against P388/ADR tumors in vivo,[6]; in words,inactive
same,P388/ADR T/C,[6],108%
"Cc1nc(N)nc(N)c1N1CCN(c2ccc(C(=O)O)cc2)CC1 [B, 4-[4-(2,4-Diamino-6-methyl-pyrimidin-5-yl)-piperzain-1-yl]-benzoic acid]",Antifol + FU,[7],30% of control
same,Antifol + LV,[7],70% of control
same,Antifol + LV + FU,[7],28% of control
same,Antifol,[7],62% of control
same,Ki,[1],0.201 nM
"CCOC(=O)CCC(NC(=O)c1ccc(N2CCN(c3c(N)nc(N)nc3CC)CC2)cc1)C(=O)OCC (stereo not shown) [C, 2-{4-[4-(2,4-Diamino-6-ethyl-pyrimidin-5-yl)-pierazin-1-yl]-benzoylamino}pentanedioic acid diethyl ester]",Antifol + FU,[7],40% of control
same,Antifol + LV,[7],80% of control
same,Antifol + LV + FU,[7],30% of control
same,Antifol,[7],88% of control
same,Ki,[1],0.109 nM
"Cc1nc(N)nc(N)c1-c1ncncc1-c1ccc(C(=O)O)cc1 [Compound F, 4-[4-(2,4-Diamino-6-methyl-pyrimidin-5-yl)-pyrimidin-5-yl]-benzoic acid]",P388S T/C,[2],260%
same,IC50,[3]; in vitro,0.04 µg/mL
same,R/S,[3],1.1
same,IC50,[5]; in vitro,0.033 µg/mL
"CC(=O)c1ccc(N2CCN(c3c(C)nc(N)nc3N)CC2)cc1 [D, 1-{4-[4-(2,4-Diamino-6-methyl-pyrimidin-5-yl)-piperazin-1-yl]-phenyl}-ethanone]",Antifol + FU,[8],50% of control
same,Antifol + LV + FU,[8],42% of control
same,P388S T/C,[2],182%
same,IC50,[3]; in vitro,0.01 µg/mL
same,R/S,[3],1
same,C26 ip T/C,[4],171%
same,Antifol + FU,[9],10% of control
same,Antifol + LV,[9],110% of control
same,Antifol + LV + FU,[9],5% of control
same,Antifol,[9],70% of control
same,Ki,[1],0.131 nM
same,IC50,[5]; in vitro,0.01 µg/mL
same,C26 sc T-C,[10],17.3 days
same,P388/ADR T/C,[6],180%
same,Antifol + LV,[11],90% of control
same,Antifol,[11],92% of control
Cc1nc(N)nc(N)c1N1CCN(c2ccc(S(C)(=O)=O)cc2)CC1 [E],Ki,[1],0.138 nM
Cc1nc(N)nc(N)c1N1CCN(c2ccc(C=O)cc2)CC1 [Example 1],P388S T/C,[2],190%
same,IC50,[3]; in vitro,0.0068 µg/mL
same,R/S,[3],1.1
same,C26 ip T/C,[4],263%
same,activity against C26 colon tumor in vivo,"[4]; in words, T/C×100>130 represents in vivo antitumor activity",curative
same,Ki,[1],0.073 nM
same,IC50,[5]; in vitro,0.005 µg/mL
same,C26 sc T-C,[10],7.6 days
same,P388/ADR T/C,[6],169%
"Cc1nc(N)nc(N)c1N1CCN(c2ccc(C(=O)NN)cc2)CC1 [Example 11, 4-[4-(2,4-Diamino-6-methyl-5-pyrinidinyl)-1-piperazinyl]benzoic acid, hydrazide]",Antifol + FU,[8],42% of control
same,Antifol + LV + FU,[8],33% of control
same,P388S T/C,[2],195%
same,Antifol + FU,[7],48% of control
same,Antifol + LV,[7],80% of control
same,Antifol + LV + FU,[7],16% of control
same,Antifol,[7],77% of control
same,IC50,[3]; in vitro,0.0161 µg/mL
same,R/S,[3],1.5
same,C26 ip T/C,[4],164%
same,IC50,[5]; in vitro,0.0105 µg/mL
same,P388/ADR T/C,[6],161%
same,Antifol + LV,[11],80% of control
same,Antifol,[11],87% of control
"Cc1nc(N)nc(N)c1N1CCN(c2ccc(/C=N/OCCN)cc2)CC1 [Example 12, 4-[4-(2,4-Diamino-6-methyl-pyrimidin-5-yl)-piperazin-1-yl]-benzaldehyde O-(2-amino-ethyl)-oxime, dihydrochloride]",Antifol + FU,[8],35% of control
same,Antifol + LV + FU,[8],27% of control
same,Antifol + FU,[7],30% of control
same,Antifol + LV,[7],65% of control
same,Antifol + LV + FU,[7],25% of control
same,Antifol,[7],65% of control
same,IC50,[3]; in vitro,0.0117 µg/mL
same,R/S,[3],1.1
same,Antifol + FU,[9],20% of control
same,Antifol + LV,[9],97% of control
same,Antifol + LV + FU,[9],16% of control
same,Antifol,[9],100% of control
same,IC50,[5],0.011 µg/mL
same,C26 sc T-C,[10],5.2 days
same,Antifol + LV,[11],67% of control
same,Antifol,[11],52% of control
"Cc1nc(N)nc(N)c1N1CCN(c2ccc(C(=O)N(C)N)cc2)CC1 [Example 13, 4-[4-(2,4-Diamino-6-methyl-5-pryimidinyl)-1-piperazinyl]benzoic acid, 1-methylhydrazide]",Antifol + FU,[9],10% of control
same,Antifol + LV,[9],85% of control
same,Antifol + LV + FU,[9],7% of control
same,Antifol,[9],85% of control
"O=c1[nH]cc(F)c(=O)[nH]1 [FU, 5-fluorouracil, reference compound]",FU,[12],72% of Control
same,FU,"[7]; 5 μM FU alone, 4 hours",90% of control and 90* percent of control
same,FU,"[9]; 5 μM FU alone, 4 hours",90% of control and 90* percent of control
Nc1ncc(N2CCN(c3ccc(C(=O)O)cc3)CC2)c(N)n1 [G],P388S T/C,[2],220%
same,P388/ADR IC50,[3]; in vitro,0.074 µg/mL
same,R/S,[3],0.98
same,C26 ip T/C,[4],202%
same,P388S IC50,[5]; in vitro,0.076 µg/mL
same,C26 sc T-C,[10],4.9 days
same,P388/ADR T/C,[6],245%
"CC(=O)c1ccc(N2CCN(c3c(C)nc(N)nc3N)CC2)cc1F [H, 1-{4-[4-(2,4-Diamino-6-methyl-pyrimidin-5-yl)-piperazin-1-yl]-2-fluoro-phenyl}-ethanone]",Antifol + FU,[8],52% of control
same,Antifol + LV + FU,[8],40% of control
same,P388S T/C,[2],170%
same,IC50,[3]; in vitro,0.029 µg/mL
same,R/S,[3],1.1
same,C26 ip T/C,[4],169%
same,Antifol + FU,[9],20% of control
same,Antifol + LV,[9],86% of control
same,Antifol + LV + FU,[9],15% of control
same,Antifol,[9],82% of control
same,IC50,[5]; in vitro,0.0026 µg/mL
same,C26 sc T-C,[10],9.4 days
same,Antifol + LV,[11],77% of control
same,Antifol,[11],74% of control
